Test results published in ChEMBL document CHEMBL1137315, “7-Aroyl-aminoindoline-1-sulfonamides as a novel class of potent antitubulin agents” (J Med Chem, 2006).

Legend:
HT-29 = assay: Cytotoxicity against human HT29 cell line by methylene blue dye assay; assay type: functional, cell-based
Tubulin (Homo sapiens) [1] = target: T1, Tubulin (Homo sapiens) (UniProt P68371+Q9H4B7+P0DPH7+P68366+Q13509+Q71U36+P04350+Q3ZCM7+P07437+P68363+Q9BQE3+Q6PEY2+Q13885+Q9BVA1+Q9BUF5); assay: Inhibition of [3H]colchicine binding to tubulin at 5 uM; assay type: protein-complex assay
KB [2] = assay: Cytotoxicity against KB-VIN 10 cell line by methylene blue dye assay; assay type: functional, cell-based; conditions: Homo sapiens
Tubulin (Homo sapiens) [3] = target: T1, Tubulin (Homo sapiens); assay: Inhibition of [3H]colchicine binding to tubulin at 1 uM; assay type: protein-complex assay
MKN-45 = assay: Cytotoxicity against human MKN45 cell line by methylene blue dye assay; assay type: functional, cell-based
Tubulin = assay: Inhibition of tubulin polymerization; assay type: functional, Homo sapiens
KB [4] = assay: Cytotoxicity against human KB cell line by methylene blue dye assay; assay type: functional, cell-based
NCI-H460 = assay: Cytotoxicity against human H460 cell line by methylene blue dye assay; assay type: functional, cell-based
TSGH 9201 = assay: Cytotoxicity against human TSGH cell line by methylene blue dye assay; assay type: functional, cell-based

inhibition (Tubulin (Homo sapiens) [1])	inhibition (Tubulin (Homo sapiens) [3])	IC50 (Tubulin)	SMILES	IC50 (HT-29)	IC50 (KB [2])	IC50 (MKN-45)	IC50 (KB [4])	IC50 (NCI-H460)	IC50 (TSGH 9201)
91%	62%	1900 nM	COc1ccc(S(=O)(=O)N2CCc3cccc(NC(=O)c4ccc([N+](=O)[O-])cc4)c32)cc1	65 nM	95 nM	95 nM	102 nM	122 nM	116 nM
95%	74%	1200 nM	COc1ccc(S(=O)(=O)N2CCc3cccc(NC(=O)c4ccco4)c32)cc1	9.5 nM	9.2 nM	10.7 nM	9.6 nM	9.8 nM	11.1 nM
–	–	–	COc1ccc(S(=O)(=O)N2CCc3cccc(NS(=O)(=O)c4ccc([N+](=O)[O-])cc4)c32)cc1	–	–	933 nM	1100 nM	–	–
–	–	> 5000 nM	COc1ccc(S(=O)(=O)N2CCc3cccc(NCc4ccccc4)c32)cc1	> 10000 nM	> 10000 nM	> 10000 nM	> 10000 nM	> 10000 nM	> 10000 nM
–	–	–	COc1ccc(S(=O)(=O)N2CCc3cccc(NC(=O)c4ccccc4)c32)cc1	192 nM	180 nM	250 nM	297 nM	257 nM	201 nM
–	–	–	COc1ccc(C(=O)Nc2cccc3c2N(S(=O)(=O)c2ccc(OC)cc2)CC3)cc1	–	–	1600 nM	2600 nM	–	–
–	–	–	COc1ccc(S(=O)(=O)N2CCc3cccc(NC(=O)Oc4ccccc4)c32)cc1	–	–	> 10000 nM	> 10000 nM	–	–
–	–	–	COc1ccc(S(=O)(=O)N2CCc3cccc(NC(=O)c4ccc(C#N)cc4)c32)cc1	–	–	89 nM	105 nM	–	–
–	–	–	COc1ccc(S(=O)(=O)N2CCc3cccc(NS(=O)(=O)c4ccc(F)cc4)c32)cc1	–	–	890 nM	1200 nM	–	–
–	–	–	COc1ccc(S(=O)(=O)N2CCc3cc(Br)cc(NC(=O)c4ccncc4)c32)cc1	–	–	86 nM	91 nM	–	–
–	–	–	COc1ccc(S(=O)(=O)N2CCc3cccc(NC(=O)N(C)c4ccccc4)c32)cc1	–	–	> 10000 nM	> 10000 nM	–	–
93%	65%	1500 nM	COc1ccc(S(=O)(=O)N2CCc3cccc(NC(=O)c4ccc(F)cc4)c32)cc1	55 nM	85 nM	45 nM	93 nM	95 nM	100 nM
–	–	–	COc1ccc(S(=O)(=O)N2CCc3cccc(N)c32)cc1	–	–	1200 nM	2800 nM	–	–
94%	75%	1700 nM	COc1ccc(S(=O)(=O)N2CCc3cccc(NC(=O)c4cccs4)c32)cc1	37 nM	43 nM	31 nM	47 nM	49 nM	54 nM
–	–	–	COc1ccc(S(=O)(=O)N2CCc3cccc(NC(=O)C(C)(C)C)c32)cc1	–	–	289 nM	359 nM	–	–
–	–	–	COc1ccc(S(=O)(=O)N2CCc3cc(Br)cc(NC(=O)c4ccco4)c32)cc1	–	–	78 nM	89 nM	–	–
86%	57%	1900 nM	COc1ccc(S(=O)(=O)N2CCc3cccc(NC(C)=O)c32)cc1	51 nM	90 nM	61 nM	89 nM	75 nM	103 nM
–	–	–	COC(=O)c1ccc(C(=O)Nc2cccc3c2N(S(=O)(=O)c2ccc(OC)cc2)CC3)cc1	–	–	312 nM	376 nM	–	–
–	–	–	COc1cc2c(c(OC)c1OC)-c1ccc(OC)c(=O)cc1[C@@H](NC(C)=O)CC2 [COLCHICINE]	–	117 nM	15 nM	13.3 nM	–	–
96%	78%	1100 nM	COc1ccc(S(=O)(=O)N2CCc3cccc(NC(=O)c4ccncc4)c32)cc1	8.6 nM	8.9 nM	8.8 nM	9.6 nM	9.4 nM	10.8 nM
–	–	–	COc1ccc(S(=O)(=O)N2CCc3cccc(NS(=O)(=O)c4ccccc4)c32)cc1	–	–	562 nM	650 nM	–	–
